Measured values from US10251958B2 (NEWSOUTH INNOVATIONS PTY LIMITED, priority 2013, dated 2019).
Oligonucleotides are written 5' to 3', each unit as a sugar letter and its base; * is a phosphorothioate linkage, no mark a phosphodiester; rarer units and linkages stand in square brackets, end groups in braces. Plain capitals give the bases only. d = 2'-deoxy (DNA)

Experiments:
[1] = DLS hydrodynamic diameter of BSA conjugated copolymer (Example 2); format: physicochemical; conditions: for PDi: 0.1M PBS pH 7, DLS
Procedure: ^1H-NMR spectra were acquired to characterised compounds using CDCl3 or d-DMSO with a 300 MHz spectrometer. Thermogravimetric analysis (TGA) was carried out using TG5000 to quantify the amount of platinum conjugated to the copolymers. The sample (≤5 mg) was placed on a thermo-balance and heated from room temperature to 600° C. at 20° C./min, and held for an isothermal period of 60 minutes under nitrogen atmosphere. Diameter size of copolymers in 0.1M PBS buffer pH 7.0 was measured using a Malvern dynamic light scattering instrument (DLS) in a disposable plastic cuvette (1 cm path length). Fluorescence measurements were performed on Agilent Cary Eclipse Fluorescence Spectrometer using a 1 cm quartz cuvette. Fluorescence spectra were recorded between 400-800 nm at λex=495 nm, λem=520 nm with entrance and exit slit width of […]. SDS-PAGE was performed using standard techniques using a premixed electrophoresis buffer which contains 25 mM Tris, 192 mM glycine and 0.1% SDS (Tris/Glycine/SDS buffer) to determine the conjugation efficiency between the BSA-FITC and the copolymer. Samples were prepared for electrophoresis without the use of a reducing agent. The samples were mixed with bromophenol blue (0.01% w/v) solution as the marker. The samples were resolved through a 10% polyacrylamide gel which was performed using a BioRad Mini-Protean II electrophoresis setup at a constant voltage (150 V). The samples were stained using Colloidal Blue Coomassie G-250 (Bio-Rad), and left overnight. Gel images were recorded using a Bio-Rad GS-800 calibrated densitometer. Native BSA was used as a control.
The size and shape of the BSA conjugated copolymer in PBS solution was investigated using DLS and TEM.

[2] = Hydrodynamic diameter and zeta potential of materials and complexes (Example 3); format: physicochemical; conditions: pH 7; ISIS 5132 200 ug/ml, BSA 1 mg/ml, PDMAEMA 0.21 mg/ml
Procedure: The resulting conjugates were dialysed in 0.05 M PBS (pH5) for 12 h by changing solvent every 2 h. […] All the conditions were kept consistent to the corresponding oligonucleotide samples. In addition, the oligonucleotide transfection efficiency of the PEGMEMA-PDMAEAM cationic block copolymer was investigated. The same protocol was adopted to make the polyion complex micelles from this polymer solution.
The condensation of the oligonucleotide was therefore carried out when the conjugate solution was at pH5 and the oligonucleotide was dissolved in MilliQ water. The albumin-polymer conjugates with a pH of 5 was then slowly added to the solutions of ISIS 5132 with the concentration of 200 μg/ml (ζ=−29.87 mV at pH7). […] After the complex micelle was stable, the system was brought back to pH7. There are several reasons for this: to reduce the aggregation of the micelle, to protect the oligonucleotide and to keep the neutral environment for cells in the afterward cytotoxicity assays.

cancer cells = conditions: most effective free Curcumin study results; read-out: free Curcumin concentration to bring about 50% cell death; cited from earlier work
[3] = tested on: prostate cancer cell lines; assay: Cytotoxicity against three prostate cancer cell lines (Example 4); format: cell-based; conditions: chosen concentration range
Procedure: The product was tested for particle size and cytotoxicity against prostate cancer.

[4] = Nile Red encapsulation efficiency by Fluorescence Spectroscopy; format: physicochemical; conditions: preliminary polymer-protein aggregates loaded with Nile Red
Text: After the formation of polymer-protein Curcumin carrying micelles of a desirable size, there was a clear need to determine the amount of Curcumin actually encapsulated. Preliminary aggregates were loaded with Nile Red dye to act as a makeshift drug and analysed by Fluorescence Spectroscopy. After comparison to a Calibration curve established from analysis of Nile Red concentrations dissolved in DMSO solvent, the intensity was backcalculated to yield a 30.4% encapsulation efficiency.

P(HPMA13-co-[(AC-DAP)9-Pt8])
PDi [1]: 0.14

ISIS 5132: 20-base antisense phosphorothioate oligodeoxyribonucleotide: 5′TCCCGCCTGTGACATGCATT3′ (DNA dT*dC*dC*dC*dG*dC*dC*dT*dG*dT*dG*dA*dC*dA*dT*dG*dC*dA*dT*dT)
Dh [2]: 0-107 nm | Zeta potential [2]: −29.87 mV

COc1cc(/C=C/C(=O)CC(=O)/C=C/c2ccc(O)c(OC)c2)ccc1O [Curcumin]
IC50 (cancer cells): 10 µM | toxicity [3]: only negligible toxicity

CCN(CC)c1ccc2nc3c4ccccc4c(=O)cc-3oc2c1 [Nile Red]
Nile Red encapsulation efficiency [4]: 30.4%

BSA-FITC
Dh number (d/nm) ([1]; 0.1M PBS pH 7, 25° C.): 7.44 nm | PDi [1]: 0.58
